Reference: PMC8911927, “Synthesis and Biological Evaluation of 1-(2-(6-Methoxynaphthalen-2-yl)-6-methylnicotinoyl)-4-Substituted Semicarbazides/Thiosemicarbazides as Anti-Tumor Nur77 Modulators” (Molecules, 2022)

What was measured:
[1] = tested on: HeLa cells; test: MTT cytotoxicity, HeLa; format: cell-based, human; settings: 72 h, mean values
Experimental: (§1) All of the cell lines were obtained from the American Type Culture Collection (ATCC, Manassas, VA, USA) and grown in DMEM or RPMI culture medium containing 10% fetal bovine serum (v/v) in 5% CO2 at 37 °C.
(§2) Confluent cells in good state were cultured in 96-well plates (5–10 × 10^4 cells/mL). After cells were attached to the plate, compounds with various concentrations were applied at 37 °C for 72 h. Then, the cells were incubated with 10 μL of 5 mg/mL MTT reagent at 37 °C for 4 h. The supernatant was removed, and the cells were dissolved in 100 μL dimethyl sulfoxide and shaken for 5 min. Finally, the light absorption (OD) of the dissolved cells was measured at […].

[2] = tested on: MCF-7 cells; test: MTT cytotoxicity, MCF-7; format: cell-based, human; settings: mean values
Experimental: as §1, §2

[3] = tested on: HGC-27 cells; test: MTT cytotoxicity, HGC-27; format: cell-based, human; settings: 72 h, mean values
Experimental: as §1, §2

[4] = tested on: MDA-MB231 cells; test: MTT cytotoxicity, MDA-MB231; format: cell-based; settings: read-out: Cancer Cells IC50, MDA-MB231
Experimental: (§3) All of the cell lines were obtained from the American Type Culture Collection (ATCC, Manassas, VA, USA) and grown in DMEM or RPMI culture medium containing 10% fetal bovine serum (v/v) in 5% CO2 at 37 °C. Confluent cells in good state were cultured in 96-well plates (5–10 × 10^4 cells/mL). After cells were attached to the plate, compounds with various concentrations were applied at 37 °C for 72 h. […] The supernatant was removed, and the cells were dissolved in 100 μL dimethyl sulfoxide and shaken for 5 min.

[5] = tested on: HGC-27 cells; test: Colony formation assay; format: cell-based, human; settings: treatment for two weeks, 5 μM and 10 μM, dose-dependent
Experimental: HGC-27 cells were cultured in a six-well plate (500 cells/well) and treated with 9u and 9h in 10% serum medium for two weeks, then fixed with methanol at room temperature and stained with 0.1% crystal violet, and images were scanned with a scanner.

[6] = tested on: HGC-27 cells; test: Flow cytometry cell cycle assay; format: cell-based, human; set-up: dose or concentration left out as unconfirmed; settings: 8 h of treatment
Experimental: Flow cytometry analysis was applied for cell cycle detection. Firstly, HGC-27 cell was adjusted to 1 × 10^6/mL, inoculated into a six-well plate and placed in an incubator at 37 °C containing 5% CO2 saturated humidity overnight. After the cells were fully attached to the plate, […] 9u and 9h were administrated to the cells for 8 h. After cells were collected and fixed with 70% ethanol, DAPI was applied to stain the cells at the final concentration of 1 μg/mL; subsequently, on-board testing by flow cytometry (Cytoflex S (Beckman Coulter, Brea, CA, USA)) was conducted.

[7] = tested on: A549 cells; test: MTT cytotoxicity, A549; format: cell-based; settings: read-out: Cancer Cells IC50, A549
Experimental: as §3

[8] = tested on: LO2 cells; test: MTT cytotoxicity, LO2 normal cells; format: cell-based
Experimental: as §3

[9] = tested on: MRC-5 cells; test: MTT cytotoxicity, MRC-5 normal cells; format: cell-based
Experimental: as §3

[10] = tested on: A875 cells; test: MTT cytotoxicity, A875; format: cell-based; settings: read-out: Cancer Cells IC50, A875
Experimental: as §3

[11] = tested on: H460 cells; test: MTT cytotoxicity, H460; format: cell-based; settings: read-out: Cancer Cells IC50, H460
Experimental: as §3

[12] = tested on: cleaved PARP; test: Western blot of cleaved PARP; format: cell-based, human; settings: HGC-27 cells, different times and concentrations, 24 h
Experimental: Equal amounts of the lysates were electrophoresed on 10% SDS-PAGE gel and transferred onto PVDF membranes. After blocked with 5% nonfat milk in TBST (50 mM Tris-HCl (pH 7.4), 150 mM NaCl and 0.1% Tween 20) for 1 h, the membranes were incubated with various primary antibodies overnight and secondary antibodies for 3 h, finally detected using an ECL system. The blots were captured with ChemiDoc XRS+System (Bio-Rad, Hercules, CA, USA).

[13] = tested on: HepG2 cells; test: MTT cytotoxicity, HepG2; format: cell-based; settings: read-out: Cancer Cells IC50, HepG2
Experimental: as §3

Row | Compound | IC50 [1] [µM] | IC50 ([2]; 72 h) [µM] | IC50 [3] [µM] | other results
1 | 1-(2-(6-Methoxynaphthalen-2-yl)-6-methylnicotinoyl)-4-phenethylthiosemicarbazide [Compound 9o] | 20.7 ± 0.22 | 35.2 ± 0.09 | 39.12 ± 0.21 | –
2 | 1-(2-(6-Methoxynaphthalen-2-yl)-6-methylnicotinoyl)-4-o-tolylthiosemicarbazide [Compound 9q] | 14.2 ± 0.22 | 23.3 ± 0.21 | 19.4 ± 0.69 | –
3 | 1-(2-(6-Methoxynaphthalen-2-yl)-6-methylnicotinoyl)-4-(4-methoxyphenyl)thiosemicarbazide [Compound 9t] | 10.1 ± 0.61 | 11.4 | 16.7 | –
4 | 4-(3,5-Dimethylphenyl)-1-(2-(6-methoxynaphthalen-2-yl)-6-methylnicotinoyl)semicarbazide [Compound 9i] | 20.1 ± 0.44 | 21.4 ± 0.25 | 19.7 ± 0.31 | –
5 | 1-(2-(6-Methoxynaphthalen-2-yl)-6-methylnicotinoyl)-4-m-tolylthiosemicarbazide [Compound 9r] | 20.2 ± 0.24 | 18.4 ± 0.41 | 19.4 ± 0.11 | –
6 | 4-(3,5-Difluorophenyl)-1-(2-(6-methoxynaphthalen-2-yl)-6-methylnicotinoyl)semicarbazide [Compound 9j] | 12.1 ± 0.21 | 16.3 ± 0.34 | 16.6 ± 0.44 | –
7 | CCCCCCNC(=S)NNC(=O)c1ccc(C)nc1-c1ccc2cc(OC)ccc2c1 [Compound 9l, 4-Hexyl-1-(2-(6-methoxynaphthalen-2-yl)-6-methylnicotinoyl)thiosemicarbazide] | – | – | – | melting point: 195 to 196 °C; IC50 ([1]; Homo sapiens): 45.4 ± 0.11 µM; IC50 ([2]; Homo sapiens, MCF7, 72 h): 40.2 ± 0.33 µM; IC50 ([3]; Homo sapiens): 38.1 ± 0.21 µM
8 | 4-(2-Chlorophenyl)-1-(2-(6-methoxynaphthalen-2-yl)-6-methylnicotinoyl)thiosemicarbazide [Compound 9u] | 6.1 ± 0.5 | 6.44 ± 0.07 | 4.56 ± 0.09 | IC50 [4]: 21 ± 0.01 µM; Colony formation of HGC-27 cells [5]: completely inhibited colony formation; Effect on cell cycle [6]: induced cell cycle blockage in G2-M phase; IC50 [7]: 11.2 ± 0.46 µM; IC50 [8]: 41 ± 0.7 µM; IC50 [9]: 22.1 ± 0.11 µM; IC50 [10]: 15.7 ± 0.11 µM; IC50 [11]: 14 ± 0.38 µM; PARP cleavage [12]: induce the PARP cleavage in a dose-dependent and time-dependent manner; IC50 [13]: 7.2 ± 0.11 µM
9 | 1-(2-(6-Methoxynaphthalen-2-yl)-6-methylnicotinoyl)-4-p-tolylthiosemicarbazide [Compound 9s] | 16.12 ± 0.07 | 19.3 ± 0.3 | 10.4 ± 0.19 | –
10 | 4-(3,4-Dichlorophenyl)-1-(2-(6-methoxynaphthalen-2-yl)-6-methylnicotinoyl)semicarbazide [Compound 9k] | 10.1 ± 0.69 | 11.6 ± 0.45 | 12.4 ± 0.5 | –
11 | COc1ccc2cc(-c3ccc(C(=O)NNC(=O)NC4CCCCC4)c(C)n3)ccc2c1 [Compound 9b] | – | – | – | melting point: 236 to 237 °C; IC50 ([1]; Homo sapiens): 30.5 ± 0.4 µM; IC50 ([2]; Homo sapiens, MCF7, 72 h): 41.5 ± 0.78 µM; IC50 ([3]; Homo sapiens): 50.26 ± 0.2 µM
12 | N.N.[Cl][Pt][Cl] [Cisplatin, reference compound] | 12.45 ± 0.11 | 10.5 ± 0.31 | 8.9 ± 0.2 | IC50 [4]: 20.2 ± 0.25 µM; IC50 [7]: 9.3 ± 0.11 µM; IC50 [8]: > 50 µM; IC50 [9]: > 50 µM; IC50 [10]: 21.2 ± 0.08 µM; IC50 [11]: 16.6 ± 0.09 µM; IC50 [13]: 15.2 ± 0.29 µM
13 | 1-(2-(6-Methoxynaphthalen-2-yl)-6-methylnicotinoyl)-4-phenylthiosemicarbazide [Compound 9p] | 14.7 ± 0.31 | 23.34 ± 0.21 | 19.24 ± 0.09 | –
14 | 4-Cyclopentyl-1-(2-(6-methoxynaphthalen-2-yl)-6-methylnicotinoyl)semicarbazide [Compound 9a] | 88.39 ± 0.22 | 60.26 ± 0.11 | 38.39 ± 0.32 | –
15 | 1-(2-(6-Methoxynaphthalen-2-yl)-6-methylnicotinoyl)-4-(4-methoxyphenyl)semicarbazide [Compound 9g] | 20.2 ± 0.31 | 18.4 ± 0.21 | 19.4 ± 0.63 | –
16 | 1-(2-(6-Methoxynaphthalen-2-yl)-6-methylnicotinoyl)-4-p-tolylsemicarbazide [Compound 9f] | 24.2 ± 0.61 | 23.3 ± 0.1 | 29.4 ± 0.31 | –
17 | 1-(2-(6-Methoxynaphthalen-2-yl)-6-methylnicotinoyl)-4-o-tolylsemicarbazide [Compound 9d] | 20.7 ± 0.26 | 35.2 ± 0.6 | 39.1 ± 0.72 | –
18 | 4-(3,4-Dichlorophenyl)-1-(2-(6-methoxynaphthalen-2-yl)-6-methylnicotinoyl)thiosemicarbazide [Compound 9w] | 10.7 ± 0.34 | 10.9 ± 0.42 | 16.4 ± 0.31 | –
19 | 4-Cyclohexyl-1-(2-(6-methoxynaphthalen-2-yl)-6-methylnicotinoyl)thiosemicarbazide [Compound 9m] | 34.5 ± 0.37 | 35.4 ± 0.41 | 30.2 ± 0.61 | –
20 | 4-Benzyl-1-(2-(6-methoxynaphthalen-2-yl)-6-methylnicotinoyl)semicarbazide [Compound 9c] | 25.3 ± 0.45 | 21.1 ± 0.52 | 23.16 ± 0.2 | –
21 | 4-(2,4-Difluorophenyl)-1-(2-(6-methoxynaphthalen-2-yl)-6-methylnicotinoyl)thiosemicarbazide [Compound 9v] | 10.1 ± 0.11 | 11.6 ± 0.56 | 12.4 ± 0.25 | –
22 | 4-Benzyl-1-(2-(6-methoxynaphthalen-2-yl)-6-methylnicotinoyl)thiosemicarbazide [Compound 9n] | 25.33 ± 0.1 | 21.1 ± 0.32 | 23.16 ± 0.07 | –
23 | 1-(2-(6-methoxynaphthalen-2-yl)-6-methylnicotinoyl)-4-m-tolylsemicarbazide [Compound 9e] | 24.65 ± 0.24 | 33.34 ± 0.12 | 49.24 ± 0.26 | –
